Measured values: ChEMBL document CHEMBL1136078, “Fundamental structure-activity relationships associated with a new structural class of respiratory syncytial virus inhibitor” (Bioorg Med Chem Lett, 2003)

How the values were obtained:
HEp-2 = test: Concentration that causes cytotoxicity to uninfected HEp-2 human lung carcinoma cell line; type: functional
[1] = test system: Respiratory syncytial virus; test: Antiviral activity against respiratory syncytial virus in HEp-2 human lung carcinoma cell line; type: functional, organism-based
[2] = test system: Respiratory syncytial virus; test: Antiviral activity against respiratory syncytial virus in HEp-2 human lung carcinoma cell line; […]; type: functional, organism-based

`CN(C)CCCn1c(Cn2nc3ccccc3n2)nc2ccccc21` gave a CC50 (HEp-2) of 182 µM and an EC50 [1] of 3.6 µM.
`CC(C)n1c(Cn2nc3ccccc3n2)nc2ccccc21` gave a CC50 (HEp-2) of 58 µM and an EC50 [1] of 51.5 µM.
Compound `O=C(O)CCn1c(Cn2nnc3ccccc32)nc2ccccc21` has a CC50 (HEp-2) of 184 µM and an EC50 [1] of 18.1 µM.
With `CC(C)(C)OC(=O)CCn1c(Cn2nnc3ccccc32)nc2ccccc21` the CC50 (HEp-2) was 9.98 µM and the EC50 [1] was 4.31 µM.
`CC(C)CCn1c(Cn2nc3ccccc3n2)nc2ccccc21` gave a CC50 (HEp-2) of 13.5 µM and an EC50 [1] of 0.44 µM.
With `CC(C)n1c(Cn2nnc3ccccc32)nc2ccccc21` the CC50 (HEp-2) was 129 µM and the EC50 [1] was 15.5 µM.
`CC(C)Cn1c(Cn2nnc3ccccc32)nc2ccccc21` was tested, and the EC50 [2] was “Not Active” and the CC50 (HEp-2) was 15.5 µM.
`CCN(CC)OC(=O)Cn1c(Cn2nnc3ccccc32)nc2ccccc21` was tested, and the EC50 [2] was “Not Active” and the CC50 (HEp-2) was 250 µM.
`CC(O)CCn1c(Cn2nnc3ccccc32)nc2ccccc21` (stereo not given) gave a CC50 (HEp-2) greater than 309 µM and an EC50 [1] of 0.12 µM.
`O=C(O)Cn1c(Cn2nnc3ccccc32)nc2ccccc21` was tested, and the EC50 [2] was “Not Active” and the CC50 (HEp-2) was 303 µM.
`CC(C)Cn1c(Cn2nc3ccccc3n2)nc2ccccc21` gave a CC50 (HEp-2) of 106 µM and an EC50 [1] of 47.5 µM.
For `OC(Cn1c(Cn2nnc3ccccc32)nc2ccccc21)c1ccccc1` (stereo not given), the CC50 (HEp-2) was 37.6 µM and the EC50 [1] was 0.59 µM.
For `CC(=O)CCn1c(Cn2nnc3ccccc32)nc2ccccc21`, the CC50 (HEp-2) was 59 µM and the EC50 [1] was 0.52 µM.
Work on `c1ccc(Cn2c(Cn3nnc4ccccc43)nc3ccccc32)cc1` yielded a CC50 (HEp-2) of 9 µM and an EC50 [1] of 10.5 µM.
`c1ccc2[nH]c(Cn3nnc4ccccc43)nc2c1` gave a CC50 (HEp-2) of 164 µM and an EC50 [1] of 31.1 µM.
`CC(C)CCCn1c(Cn2nnc3ccccc32)nc2ccccc21` was tested, and the CC50 (HEp-2) was 24 µM and the EC50 [1] was 0.19 µM.
In the case of `CC(C)CCn1c(Cn2nnc3ccccc32)nc2ccccc21`, the CC50 (HEp-2) is reported as 39.9 µM and the EC50 [1] is reported as 0.1 µM.
In the case of `CSCCn1c(Cn2nnc3ccccc32)nc2ccccc21`, the CC50 (HEp-2) is reported as 166 µM and the EC50 [1] is reported as 0.3 µM.
`N#CCCn1c(Cn2nnc3ccccc32)nc2ccccc21` gave a CC50 (HEp-2) of 49.3 µM and an EC50 [1] of 2.69 µM.
Compound `O=C(Cn1c(Cn2nnc3ccccc32)nc2ccccc21)c1ccccc1` has a CC50 (HEp-2) of 18 µM and an EC50 [1] of 2.2 µM.
Work on `CN(C)CCCn1c(Cn2nnc3ccccc32)nc2ccccc21` yielded a CC50 (HEp-2) of 197 µM and an EC50 [1] of 1.1 µM.
`CCN(CC)OC(=O)Cn1c(Cn2nc3ccccc3n2)nc2ccccc21` was tested, and the EC50 [2] was “Not Active”.
With `OCCn1c(Cn2nnc3ccccc32)nc2ccccc21` the CC50 (HEp-2) was 205 µM and the EC50 [1] was 7.7 µM.
`CC(C)=CCn1c(Cn2nnc3ccccc32)nc2ccccc21` was tested, and the CC50 (HEp-2) was 102 µM and the EC50 [1] was 3.3 µM.
`COC(=O)Cn1c(Cn2nnc3ccccc32)nc2ccccc21` was tested, and the EC50 [2] was “Not Active” and the CC50 (HEp-2) was 374 µM.
`C[S+]([O-])CCn1c(Cn2nnc3ccccc32)nc2ccccc21` (stereo not given) gave a CC50 (HEp-2) of 56.4 µM and an EC50 [1] of 0.43 µM.
`CS(=O)(=O)CCn1c(Cn2nnc3ccccc32)nc2ccccc21` gave a CC50 (HEp-2) of 337 µM and an EC50 [1] of 0.25 µM.
With `CCCCn1c(Cn2nnc3ccccc32)nc2ccccc21` the CC50 (HEp-2) was 12 µM and the EC50 [1] was 0.066 µM.
`NC(=O)CCn1c(Cn2nnc3ccccc32)nc2ccccc21` gave a CC50 (HEp-2) of 4.28 µM and an EC50 [1] of 2.1 µM.
In the case of `CCN(CC)CCCn1c(Cn2nnc3ccccc32)nc2ccccc21`, the EC50 [2] is reported as “Not Active”.
In the case of `c1ccc(CCn2c(Cn3nnc4ccccc43)nc3ccccc32)cc1`, the CC50 (HEp-2) is reported as 2.6 µM and the EC50 [1] is reported as 0.77 µM.
